From patent publication US11242365B2, “FOXM1-derived peptide, and vaccine including same” (OncoTherapy Science, Inc., priority 2015, dated 2022)
“Also recorded” adds a separate entry of the source.

Key:
[1] = test system: target cells (C1R-A33) pulsed with peptide; test: IFN-gamma ELISA of CTL clones established by limiting dilution (HLA-A*33:03); type: cell-based, human; settings: CTL clone against peptide-pulsed C1R-A33
Experimental: (§1) After induction of CTLs in vitro, the CTLs were seeded onto 96-well round-bottomed microplates (Nalge Nunc International) at 1 cell/well or 10 cells/well. The CTLs were cultured with two types of Mitomycin C-treated human B lymphoblastoid cell lines (1×10^4 cells/well each) in a total of 150 micro-l/well 5% ABS/AIM-V medium with an anti-CD3 antibody (final concentration: 30 ng/ml) and IL-2 (final concentration: 125 IU/ml). Ten days later, 50 micro-l 5% ABS/AIM-V medium containing 500 IU/ml IL-2 was added to the culture.
(§2) Peptide-pulsed C1R-A33 (1×10^4 cells/well) was prepared as the target cell. The IFN-gamma ELISPOT assay and IFN-gamma ELISA were performed according to the assay kit manufacturer's manual.

[2] = test system: target cells (C1R-A33) pulsed with peptide; test: IFN-gamma ELISA of CTL lines (HLA-A*33:03); type: cell-based, human; settings: CTL line against peptide-pulsed C1R-A33
Experimental: CTLs were propagated using methods similar to those reported by Riddell et al. (Walter E A et al., N Engl J Med 1995, 333(16): 1038-44; Riddell S R et al., Nat Med 1996, 2(2): 216-23). The CTLs were cultured in 25 ml 5% ABS/AIM-V medium together with two types of Mitomycin C-treated human B lymphoblastoid cell lines (5×10^6 cells/25 ml medium each) and an anti-CD3 antibody (final concentration: 40 ng/ml). On the day after beginning of the culturing, IL-2 (final concentration: 120 IU/ml) was added to the culture. On days 5, 8 and 11, the medium was changed to a 5% ABS/AIM-V medium containing IL-2 (final concentration: 30 IU/ml) (Tanaka H et al., Br J Cancer 2001, 84(1): 94-9; Umano Y et al., Br J Cancer 2001, 84(8): 1052-7; Uchida N et al., Clin Cancer Res 2004, 10(24): 8577-86; Suda T et al., Cancer Sci 2006, 97(5): 411-9; Watanabe T et al., Cancer Sci 2005, 96(8): 498-506).
as §2

peptide-pulsed C1R-A33 = test: In vitro CTL induction, IFN-gamma ELISPOT assay (HLA-A*33:03); type: cell-based, human; settings: CD8 positive T cells of HLA-A*33:03-positive donors after three stimulations with peptide-pulsed DCs; peptide-pulsed vs non-pulsed C1R-A33
Experimental: (§3) Monocyte-derived dendritic cells (DCs) were used as the antigen-presenting cell to induce a specific cytotoxic T lymphocyte (CTL) response against peptides presented on human leukocyte antigens (HLAs). As already reported in literatures, DCs were generated in vitro (Nakahara S et al., Cancer Res 2003, 63(14): 4112-8). Specifically, peripheral-blood mononuclear cells (PBMCs) collected from healthy volunteers (HLA-A*33:03-positive) with the Ficoll-Paque plus solution (Pharmacia) were seeded in plastic tissue culture dishes (Corning) to let the monocytes in the PBMCs adhere to the dishes. This was cultured in the presence of 1000 IU/ml granulocyte macrophage colony-stimulating factor (R&D System) and 1000 IU/ml interleukin (IL)-4 (R&D System) for seven days. An AIM-V medium (Invitrogen) containing 5% inactivated AB-type serum (ABS) was used as the medium. DCs that were induced to differentiate from monocytes using the cytokines were pulsed with 20 micro-g/ml of each synthesized peptide (37 degrees C., three hours). Peptide pulsing was carried out in an AIM-V medium containing 3 micro-g/ml beta 2-microglobulin. These peptide-pulsed DCs were inactivated by X-ray irradiation (20 Gy), mixed in a 1:20 ratio with autologous CD8 positive T cells obtained by positive selection using the CD8 Positive Isolation Kit (Invitrogen) (1.5×10^4 DCs and 3×10^5 CD8 positive T cells), and cultured in a 48-well plate (Corning). Each well contained 0.5 ml of the 5% ABS/AIM-V medium, and IL-7 (R&D System) was added thereto (final concentration: 10 ng/ml). Two days after the start of the culture, IL-2 (Novartis) was added (final concentration: 20 IU/ml). On day 7 and day 14 of culture, the CD8 positive T cells were further stimulated with peptide-pulsed DCs. The DCs were prepared at the time of use by the same method as above. […]

peptide-pulsed C1R-A01 = test: In vitro CTL induction, IFN-gamma ELISPOT assay (HLA-A*01:01); type: cell-based, human; settings: CD8 positive T cells of HLA-A*01:01-positive donors after three stimulations with peptide-pulsed DCs; peptide-pulsed vs non-pulsed C1R-A01
Experimental: as §3, with “(CTL)” for “(CTL) response”, “(HLA-A*01:01-positive)” for “(HLA-A*33:03-positive) with the Ficoll-Paque plus solution (Pharmacia)”, “by” for “by positive selection”, “(Corning).” for “(Corning). Each well contained 0.5 ml of the 5% ABS/AIM-V medium, and IL-7 (R&D System) was added thereto (final concentration: 10 ng/ml). Two days after the start of the culture, IL-2 (Novartis) was added (final concentration: 20 IU/ml). On day 7 and day 14 of culture, the CD8 positive T cells were further stimulated with peptide-pulsed DCs. The DCs were prepared at the time of use by the same method as above.”

[3] = test system: target cells (C1R-A01) pulsed with peptide; test: IFN-gamma ELISA of CTL clones established by limiting dilution (HLA-A*01:01); type: cell-based, human; settings: CTL clone against peptide-pulsed C1R-A01; listed as FOXM1-A01-9-233
Experimental: as §1
Peptide-pulsed C1R-A01 (1×10^4 cells/well) was prepared as the target cell. The IFN-gamma ELISPOT assay and IFN-gamma ELISA were performed according to the assay kit manufacturer's manual.

[4] = test system: COS7 cells expressing FOXM1 and HLA-A*33:03; test: IFN-gamma production of CTL clone against target cells expressing FOXM1 and HLA-A*33:03; type: cell-based, African green monkey
Source text: A cDNA encoding the FOXM1 or HLA-A*33:03 gene was amplified by PCR. The PCR-amplified product was each incorporated into an expression vector. Either or both of the FOXM1 gene-expressing vector and the HLA-A*33:03 gene-expressing vector were introduced into COS7 cells, which is a cell line negative for HLA, using Lipofectamine 2000 (Invitrogen). On the day after gene introduction, COS7 cells were detached and harvested using versene (Invitrogen), and used as the target cell for confirmation of IFN-gamma production (5×10^4 cells/well).
IFN-gamma production of the FOXM1-A33-9-308 (SEQ ID NO: 2)-specific CTL clone against target cells expressing FOXM1 and HLA-A*33:03 was investigated. COS7 cells expressing both FOXM1 and HLA-A*33:03 were prepared as the target cell. COS7 cells expressing either one of FOXM1 and HLA-A*33:03 were prepared as the negative control cell. […] This clearly proves that FOXM1-A33-9-308 (SEQ ID NO: 2) is a peptide generated by antigen processing, and is presented on the cell surface with the HLA-A*33:03 molecule and recognized by CTLs.

AARDVNLPR (a peptide derived from FOXM1) [SEQ ID NO: 7]
peptide-specific IFN-gamma production of CTL clone (ELISA) ([1]; listed as FOXM1-A33-9-146): showed a peptide-specific IFN-gamma production
IFN-gamma production by the CTL line (ELISA) ([2]; listed as FOXM1-A33-9-146): observed; also recorded: CTL lines that produce IFN-gamma in a peptide-specific manner were established

ASLMSSELAR (a peptide derived from FOXM1) [SEQ ID NO: 46]
peptide-specific IFN-gamma production (ELISPOT) (peptide-pulsed C1R-A33): observed

KTELPLGARR (a peptide derived from FOXM1) [SEQ ID NO: 61]
peptide-specific IFN-gamma production (ELISPOT) (peptide-pulsed C1R-A01): observed

MSSELARHSK (a peptide derived from FOXM1) [SEQ ID NO: 39]
IFN-gamma production by the CTL line (ELISA) ([2]; listed as FOXM1-A33-10-391): observed; also recorded: CTL lines that produce IFN-gamma in a peptide-specific manner were established

NLSLHDMFVR (a peptide derived from FOXM1) [SEQ ID NO: 25]
peptide-specific IFN-gamma production (ELISPOT) (peptide-pulsed C1R-A33): not observed

SLSNIQWLR (a peptide derived from FOXM1) [SEQ ID NO: 1]
peptide-specific IFN-gamma production (ELISPOT) (peptide-pulsed C1R-A33): observed

VSERPPYSY (a peptide derived from FOXM1) [SEQ ID NO: 48]
peptide-specific IFN-gamma production of CTL clone (ELISA) [3]: showed a peptide-specific IFN-gamma production

WIEDHFPYFK (a peptide derived from FOXM1) [SEQ ID NO: 42]
peptide-specific IFN-gamma production (ELISPOT) (peptide-pulsed C1R-A01): not observed
IFN-gamma production by the CTL line (ELISA) ([2]; listed as FOXM1-A33-10-265): observed; also recorded: CTL lines that produce IFN-gamma in a peptide-specific manner were established

WTIHPSANR (a peptide derived from FOXM1) [SEQ ID NO: 2]
peptide-specific IFN-gamma production of CTL clone (ELISA) ([1]; listed as FOXM1-A33-9-308): showed a peptide-specific IFN-gamma production
IFN-gamma production of peptide-specific CTL clone ([4]; COS7 cells expressing both FOXM1 and HLA-A*33:03): showed IFN-gamma production
IFN-gamma production of peptide-specific CTL clone ([4]; negative control: COS7 cells expressing either one of FOXM1 and HLA-A*33:03, listed as FOXM1-A33-9-308): a significant IFN-gamma production was not observed; also recorded: a significant IFN-gamma production was not shown
IFN-gamma production by the CTL line (ELISA) ([2]; listed as FOXM1-A33-9-308): observed; also recorded: CTL lines that produce IFN-gamma in a peptide-specific manner were established
